Assay results as given in patent US20250295634A1, “USE OF ANTIANDROGENS TO TREAT SEPSIS” (Rhode Island Hospital, priority 2024, published 2025).
Like-named read-outs stand apart in the source and are kept apart here.

Tests used:
COVID-19 [1] = details: cited from earlier work
COVID-19 [2] = details: at five days of therapy; cited from earlier work
[3] = in vivo; cited from earlier work
TMPRSS2 [4] = details: in men; cited from earlier work
COVID-19 [5] = details: men with diagnosis of AGA, outpatient setting; cited from earlier work
[6] = system: angiotensin converting enzyme 2 (ACE2); details: in men; cited from earlier work
TMPRSS2 [7] = details: cited from earlier work
COVID-19 [8] = details: inventors' reading of Welén et al.; the authors report no evidence of benefit; cited from earlier work
COVID-19 [9] = details: cited from earlier work; remark: listed apart in the source
sepsis = details: fecal peritonitis model; cited from earlier work
androgen receptor = biological target: T1, androgen receptor (Homo sapiens, UniProt P10275); details: clinical evidence; cited from earlier work
T1 sequence (P10275 1-920): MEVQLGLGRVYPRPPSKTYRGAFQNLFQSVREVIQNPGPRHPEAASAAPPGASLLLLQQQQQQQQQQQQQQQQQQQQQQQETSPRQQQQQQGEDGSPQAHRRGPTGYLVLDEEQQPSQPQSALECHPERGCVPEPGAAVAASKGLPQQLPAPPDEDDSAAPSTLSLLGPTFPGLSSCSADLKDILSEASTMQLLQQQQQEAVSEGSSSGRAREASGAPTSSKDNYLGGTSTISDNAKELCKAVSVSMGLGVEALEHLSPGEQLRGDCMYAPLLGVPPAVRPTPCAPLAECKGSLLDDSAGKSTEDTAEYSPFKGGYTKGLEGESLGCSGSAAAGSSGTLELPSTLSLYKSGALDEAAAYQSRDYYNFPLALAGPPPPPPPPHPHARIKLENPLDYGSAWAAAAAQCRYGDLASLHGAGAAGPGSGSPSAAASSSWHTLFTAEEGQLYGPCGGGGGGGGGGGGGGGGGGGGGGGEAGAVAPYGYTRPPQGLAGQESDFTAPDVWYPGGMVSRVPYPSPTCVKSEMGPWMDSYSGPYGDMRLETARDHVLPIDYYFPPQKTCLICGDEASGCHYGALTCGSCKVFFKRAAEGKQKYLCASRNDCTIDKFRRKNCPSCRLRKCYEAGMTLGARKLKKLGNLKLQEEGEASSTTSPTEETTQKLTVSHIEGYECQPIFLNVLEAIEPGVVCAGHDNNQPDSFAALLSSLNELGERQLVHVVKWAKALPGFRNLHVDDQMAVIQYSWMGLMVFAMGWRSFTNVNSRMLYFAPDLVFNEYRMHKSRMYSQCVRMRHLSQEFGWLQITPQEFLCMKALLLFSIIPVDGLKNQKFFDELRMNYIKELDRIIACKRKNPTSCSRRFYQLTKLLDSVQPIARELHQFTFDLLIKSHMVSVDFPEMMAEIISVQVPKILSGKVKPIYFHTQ

COVID-19 [10] = details: men, proxalutamide 200 mg for up to seven days; cited from earlier work
COVID-19 [11] = assay: Clinical trial of proxalutamide in hospitalized COVID-19 patients in Brazil (NCT04728802); type: in vivo, human; details: initiated in patients that don't require supplemental O2
ACE2 = details: cited from earlier work
COVID-19 [12] = details: patients with severe lung involvement; cited from earlier work
COVID-19 [13] = details: single case; case report later retracted; cited from earlier work
COVID-19 [14] = details: cited from earlier work; remark: listed apart in the source

In the case of `C[C@]12CCC(=O)C=C1C=C[C@@H]1[C@@H]2CC[C@@]2(C)[C@H]1CC[C@@]21CCC(=O)O1` [Canrenone], the fatalities (COVID-19 [1]; intensive care observational series of cases with hypertension or hypokalemia) is given as “associated with reduced fatalities”.
In the case of `CC(C)(C)NC(=O)[C@H]1CC[C@H]2[C@@H]3CC[C@H]4NC(=O)C=C[C@]4(C)[C@H]3CC[C@]12C` [Finasteride], the “peripheral capillary oxygen saturation” value (COVID-19 [2]) is given as “clinically and statistically significant improvement” and the half-life [3] is given as “six”.
In the case of `C[C@]12CCC(=O)C=C1C=C[C@@H]1[C@@H]2CC[C@@]2(C)[C@H]1CC[C@@]2(O)CCC(=O)O` [Potassium canrenoate], the all-cause mortality (COVID-19 [1]; severe COVID patients) is given as “proven to reduce all-cause mortality”.
For `C[C@]12C=CC(=O)N[C@@H]1CC[C@@H]1[C@@H]2CC[C@]2(C)[C@@H](C(=O)Nc3cc(C(F)(F)F)ccc3C(F)(F)F)CC[C@@H]12` [dutasteride], the “expression of TMPRSS2” value (TMPRSS2 [4]) is given as “decrease the expression”, the “symptomatic COVID-19 disease” value (COVID-19 [5]) is given as “less symptomatic COVID-19 disease” and the half-life [3] is given as “five”. For the same compound, the “expression of ACE2” value [6] was “decrease the expression”.
For `CNC(=O)c1ccc(N2C(=S)N(c3ccc(C#N)c(C(F)(F)F)c3)C(=O)C2(C)C)cc1F` [enzalutamide], the TMPRSS2 regulation (TMPRSS2 [7]) is listed as “significantly downregulated TMPRSS2”, the “effect on hospitalized COVID-19 patients” value (COVID-19 [8]) is listed as “positive effects” and the “mortality, subgroup analysis” value (COVID-19 [9]; human, in vivo) is listed as “significantly reduce mortality”. For the same compound, the half-life [3] was 6 days.
For `COCCCC/C(=N\OCCN)c1ccc(C(F)(F)F)cc1` [fluvoxamine], the anti-sepsis activity (sepsis) is listed as “anti-sepsis activity”.
For `CC1(C)C(=O)N(c2ccc(C#N)c(C(F)(F)F)c2F)C(=S)N1c1ccc(CCCc2ncco2)nc1` [proxalutamide], the “androgen receptor expression and activity” value (androgen receptor) is given as “lowers androgen receptor expression and activity”, the 30-day hospitalization rate (COVID-19 [10]) is given as “about 2%” and the “reduction of the risk of hospitalization compared to usual care” value (COVID-19 [10]) is given as “more than 90%”. The survival (COVID-19 [11]) was “no difference in survival”, the “expression of ACE2” value (ACE2) was “lowers the expression of ACE2” and the “benefit vs standard-of-care which includes steroids” value (COVID-19 [12]) was “showed benefit”. For the same compound, the “symptom resolution and laboratory improvement” value (COVID-19 [13]) was “striking symptom resolution and laboratory improvement within twenty-four hours”, the “mortality in COVID-19 patients” value (COVID-19 [14]; data from Brazil, both arms using corticosteroids) was “dramatic impact of proxalutamide in reducing mortality” and the “lung opacities compared to placebo” value (COVID-19 [14]; hospitalized COVID-19 patients) was “improves lung opacities”. For the same compound, the “mortality, subgroup analysis” value (COVID-19 [9]; meta-analysis of RCTs) was “significantly reduce mortality”.
For `CC(=O)S[C@@H]1CC2=CC(=O)CC[C@]2(C)[C@H]2CC[C@@]3(C)[C@@H](CC[C@@]34CCC(=O)O4)[C@H]12` [spironolactone], the “expression of TMPRSS2” value (TMPRSS2 [4]) is listed as “decrease the expression” and the “expression of ACE2” value [6] is listed as “decrease the expression”.
